This note sets out measurements from patent US20170073337A1, “DIHYDROTHIAZINE AND DIHYDROOXAZINE DERIVATIVES HAVING BACE1 INHIBITORY ACTIVITY” (Shionogi & Co., Ltd., priority 2014, published 2017).

Data set [1] can be described thus: Brain distribution studies. The settings on record: rat, 30 minutes later, area ratio brain/plasma; for Kp at 0.5 h: brain / plasma, iv, 0.5 mg/mL/kg. The class given is in vivo. As to the method:
Compound of the present invention was intravenously administered to a rat at 0.5 mg/mL/kg dosage. 30 minutes later, all blood was drawn from the abdominal aorta under isoflurane anesthesia for death from exsanguination. […] The obtained blood was used as plasma after centrifuging. The control plasma was added to the brain sample at 1:1. The control brain homogenate was added to the plasma sample at 1:1. Each sample was measured using LC/MS/MS. The obtained area ratio (a brain/plasma) was used for the brain Kp value.

The target in the next data set is T1, CYP2D6 (Homo sapiens, UniProt P10635).
T1 construct: The commercially available pooled human liver microsomes are used as an enzyme resource; from tissue; host or cells: pooled human liver microsomes
Briefly: CYP inhibition test (CYP2D6). The settings on record: pooled human liver microsomes; dextromethorphan O-demethylation. It is filed as in vitro ADME. In outline: (§1)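 Pooled human liver microsomes (0.2 mg protein/mL) were incubated at 37 °C with NADPH, compound at 1, 5, 10, 20 μmol/L and marker substrates: tolbutamide 100 μmol/L (2C9), S-mephenytoin 50 μmol/L (2C19), dextromethorphan 5 μmol/L (2D6), terfenadine 1 μmol/L (3A4). Metabolites were measured by LC/MS/MS; IC50 came from logistic fitting against DMSO control.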
For orientation: Liver microsomes are vesicles of endoplasmic reticulum, rich in cytochrome P450 enzymes.

The target in the next data set is T2, CYP2C9 (Homo sapiens, UniProt P11712).
T2 construct: The commercially available pooled human liver microsomes are used as an enzyme resource; from tissue; host or cells: pooled human liver microsomes
Briefly: CYP inhibition test (CYP2C9). It is filed as in vitro ADME. The conditions noted are these: pooled human liver microsomes; tolbutamide methyl-hydroxylation. Put shortly: as §1

In data set [2] the target is T3, P-gp (MDR1 expressing LLC-PK1 cells) (Homo sapiens, UniProt P08183).
T3 construct: host or cells: LLC-PK1
Briefly: P-gp substrate test. It is filed as in vitro ADME. The settings on record: net flux = Efflux Ratio in MDR1 expressing cells / Efflux Ratio in parent LLC-PK1 cells. Put shortly: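 MDR1-expressing LLC-PK1 and parental LLC-PK1 monolayers were incubated at 37° C; donor and receiver samples were quantified by LC/MS/MS, with digoxin (2 μM) as reference substrate. Efflux ratio is B-to-A over A-to-B permeability; net flux divides the MDR1-cell efflux ratio by the parental-cell ratio.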

Data set [3] relates to Aβ production in neuroblastoma SH-SY5Y cells (SH/APPwt). Briefly: β-amyloid (Aβ) production inhibitory effect in cell: 384-well. It is filed as cell-based. The conditions noted are these: Homo sapiens, Assay format 384-well. In outline: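 SH-SY5Y cells overexpressing human wild-type APP were seeded together with test compound (final DMSO 1%) and cultured for 21 h. Aβ1-40 in the supernatant was measured by HTRF after overnight incubation at 4 °C in the dark, reading fluorescence at 620 and 665 nm.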

In another data set the target is T4, Recombinant human BACE1 (Homo sapiens, UniProt P56817).
T4 construct: purchased R&D Systems
Briefly: Assay of BACE1 inhibitory activity: 384-well. It is filed as biochemical. The conditions noted are these: Assay format 384-well. Put shortly: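 Recombinant human BACE1 was incubated 2 h at 25 °C with a biotin/Eu-cryptate-labelled peptide substrate and compound in DMSO. Streptavidin-XL665 in pH 7.0 phosphate buffer containing 0.8 mol/L KF was then added for 30 min at 25 °C for HTRF detection.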

T3 sequence (P08183 whole entry): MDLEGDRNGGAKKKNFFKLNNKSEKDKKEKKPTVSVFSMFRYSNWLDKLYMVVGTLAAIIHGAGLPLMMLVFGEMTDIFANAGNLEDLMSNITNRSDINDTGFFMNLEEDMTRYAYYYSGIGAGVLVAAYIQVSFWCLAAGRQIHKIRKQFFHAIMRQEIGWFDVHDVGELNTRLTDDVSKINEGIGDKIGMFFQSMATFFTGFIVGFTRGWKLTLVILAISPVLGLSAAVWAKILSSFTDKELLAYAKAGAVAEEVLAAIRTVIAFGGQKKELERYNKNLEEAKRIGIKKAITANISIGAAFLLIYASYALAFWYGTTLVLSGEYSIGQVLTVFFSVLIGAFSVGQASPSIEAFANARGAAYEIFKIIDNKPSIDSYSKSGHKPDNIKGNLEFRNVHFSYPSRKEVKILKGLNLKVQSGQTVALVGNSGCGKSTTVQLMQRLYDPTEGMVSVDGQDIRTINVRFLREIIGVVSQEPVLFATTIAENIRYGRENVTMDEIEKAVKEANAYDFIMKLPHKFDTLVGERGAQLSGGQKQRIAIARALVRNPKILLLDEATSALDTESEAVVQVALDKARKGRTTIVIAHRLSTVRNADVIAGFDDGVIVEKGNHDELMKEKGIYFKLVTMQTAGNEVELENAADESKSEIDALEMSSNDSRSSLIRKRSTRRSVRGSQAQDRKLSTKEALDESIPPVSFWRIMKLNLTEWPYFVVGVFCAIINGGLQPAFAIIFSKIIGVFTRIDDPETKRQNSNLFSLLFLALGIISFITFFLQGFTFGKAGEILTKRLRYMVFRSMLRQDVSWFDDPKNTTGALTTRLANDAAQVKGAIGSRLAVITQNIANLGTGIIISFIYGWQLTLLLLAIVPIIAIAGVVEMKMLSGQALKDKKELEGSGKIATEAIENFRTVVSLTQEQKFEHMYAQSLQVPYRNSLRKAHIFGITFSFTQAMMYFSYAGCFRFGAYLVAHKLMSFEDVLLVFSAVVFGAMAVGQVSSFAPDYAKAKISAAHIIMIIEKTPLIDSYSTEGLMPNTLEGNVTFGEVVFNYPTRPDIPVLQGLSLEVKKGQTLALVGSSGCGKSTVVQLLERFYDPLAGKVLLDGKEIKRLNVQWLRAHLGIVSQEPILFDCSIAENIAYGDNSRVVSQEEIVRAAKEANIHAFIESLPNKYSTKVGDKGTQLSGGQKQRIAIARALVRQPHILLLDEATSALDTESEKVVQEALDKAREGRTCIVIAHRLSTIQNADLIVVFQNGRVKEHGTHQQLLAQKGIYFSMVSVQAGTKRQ
T4 sequence (P56817 46-501): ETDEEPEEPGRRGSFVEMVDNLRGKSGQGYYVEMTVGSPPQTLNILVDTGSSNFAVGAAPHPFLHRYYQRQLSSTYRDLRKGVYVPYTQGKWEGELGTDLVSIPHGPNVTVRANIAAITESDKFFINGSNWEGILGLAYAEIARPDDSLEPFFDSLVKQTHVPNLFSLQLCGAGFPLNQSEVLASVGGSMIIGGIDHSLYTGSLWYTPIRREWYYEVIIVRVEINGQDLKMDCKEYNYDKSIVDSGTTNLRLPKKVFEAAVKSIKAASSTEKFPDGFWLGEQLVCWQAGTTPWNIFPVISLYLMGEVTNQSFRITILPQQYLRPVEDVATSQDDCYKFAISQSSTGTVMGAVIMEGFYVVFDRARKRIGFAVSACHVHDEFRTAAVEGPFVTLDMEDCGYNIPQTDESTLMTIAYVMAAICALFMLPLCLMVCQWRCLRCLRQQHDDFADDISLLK
T2 sequence (P11712 whole entry): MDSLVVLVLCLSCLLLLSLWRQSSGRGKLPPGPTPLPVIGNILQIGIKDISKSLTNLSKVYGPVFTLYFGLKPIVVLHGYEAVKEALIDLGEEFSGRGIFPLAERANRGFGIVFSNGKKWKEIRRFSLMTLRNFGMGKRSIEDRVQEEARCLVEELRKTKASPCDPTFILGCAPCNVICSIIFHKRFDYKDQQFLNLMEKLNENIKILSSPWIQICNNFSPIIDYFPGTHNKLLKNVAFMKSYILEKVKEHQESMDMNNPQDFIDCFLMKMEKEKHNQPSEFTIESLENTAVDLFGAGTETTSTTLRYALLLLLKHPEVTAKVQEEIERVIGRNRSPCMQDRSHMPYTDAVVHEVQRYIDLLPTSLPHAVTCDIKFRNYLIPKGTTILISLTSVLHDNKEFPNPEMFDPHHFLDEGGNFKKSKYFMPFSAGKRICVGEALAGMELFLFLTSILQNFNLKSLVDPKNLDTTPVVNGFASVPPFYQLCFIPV
T1 sequence (P10635 whole entry): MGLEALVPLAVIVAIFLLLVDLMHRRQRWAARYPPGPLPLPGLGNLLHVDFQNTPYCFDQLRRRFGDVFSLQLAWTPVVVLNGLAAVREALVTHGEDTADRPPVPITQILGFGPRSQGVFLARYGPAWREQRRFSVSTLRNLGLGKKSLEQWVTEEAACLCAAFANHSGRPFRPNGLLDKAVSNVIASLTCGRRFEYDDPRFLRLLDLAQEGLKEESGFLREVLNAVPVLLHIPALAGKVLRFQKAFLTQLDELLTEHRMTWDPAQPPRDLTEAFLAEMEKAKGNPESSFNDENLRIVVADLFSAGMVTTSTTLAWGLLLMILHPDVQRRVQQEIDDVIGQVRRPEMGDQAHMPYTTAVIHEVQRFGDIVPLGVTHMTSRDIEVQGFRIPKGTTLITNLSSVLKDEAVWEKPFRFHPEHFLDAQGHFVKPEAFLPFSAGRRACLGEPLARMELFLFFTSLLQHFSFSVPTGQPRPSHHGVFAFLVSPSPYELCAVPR

A word on the Kp: it is tissue or fluid exposure divided by exposure in the circulation. By IC50 is commonly meant the concentration that inhibits the measured activity by half. `C[C@H]1SC(N)=N[C@](C)(c2nc(NC(=O)c3ccc(C#N)cn3)ccc2F)[C@H]1F` [Compound I-1]: the Kp at 0.5 h in data set [1] worked out at 2. For the same molecule, the 50% inhibitory concentration (IC50) against CYP2D6 and on CYP2C9 was ≥ 20000 nM each time. Besides, the “ER ratio (Cell: MDR1/LLC-PK1)” value in data set [2] came to 1.2.
As to `C[C@H]1SC(N)=N[C@](C)(c2nc(NC(=O)c3ccc(F)cn3)ccc2F)[C@H]1F` [Compound I-2], the Kp at 0.5 h in data set [1] amounted to 2.9. Further, the 50% inhibitory concentration (IC50) at CYP2C9 was ≥ 10000 nM.
Regarding `C[C@H]1SC(N)=N[C@](C)(c2nc(NC(=O)c3cnc(OCF)cn3)ccc2F)[C@H]1F` [Compound I-3], in data set [1], the concentration ratio (Kp) at 0.5 h was determined as 2.3. The half-maximal inhibitory concentration (IC50) on CYP2C9 was ≥ 10000 nM.
Regarding `C[C@]1(c2nc(NC(=O)c3ccc(C#N)cn3)ccc2F)N=C(N)S[C@H](CF)[C@@H]1F` [Compound I-4], the Kp at 0.5 h in data set [1] was found to be 2. Moreover, the IC50 against CYP2D6 was ≥ 20000 nM; at CYP2C9, ≥ 10000 nM.
For the molecule `C[C@@]1(c2cc(NC(=O)c3ccc(C#N)cn3)ccc2F)C[C@@](C)(C(F)(F)F)OC(N)=N1` [Compound I-7], in data set [1], the concentration ratio (Kp) at 0.5 h is 2.
Consider `COc1cnc(C(=O)Nc2ccc(F)c([C@@]3(C)N=C(N)S[C@H](C)[C@@H]3F)c2)cn1` [Compound I-8], for which the concentration ratio (Kp) at 0.5 h in data set [1] turned out to be 1.8. The “ER ratio (Cell: MDR1/LLC-PK1)” value in data set [2] is on record as 1.3.
With `C[C@]1(c2cc(NC(=O)c3ccc(C#N)cn3)ccc2F)N=C(N)O[C@H](CF)[C@@H]1OCC(F)(F)F` [Compound I-10], the concentration ratio (Kp) at 0.5 h in data set [1] was found to be 1.1. Besides, the IC50 against CYP2D6 and at CYP2C9 was ≥ 20000 nM throughout. Also, in data set [2], the “ER ratio (Cell: MDR1/LLC-PK1)” value is 4.
Consider `C[C@]1(c2cc(NC(=O)c3cnc(OCF)cn3)ccc2F)N=C(N)O[C@H](CF)[C@@H]1OCC(F)(F)F` [Compound I-12], for which the Kp at 0.5 h in data set [1] was found to be 1. Further, the figures for the IC50 on CYP2D6 and at CYP2C9 were ≥ 10000 nM and ≥ 20000 nM, respectively.
As to `C[C@H](F)[C@H]1OC(N)=N[C@](C)(c2cc(NC(=O)c3ccc(C#N)cn3)ccc2F)[C@H]1F` [Compound I-13], in data set [1], the Kp at 0.5 h was 0.56. The half-inhibitory concentration (IC50) on CYP2D6 and against CYP2C9 was ≥ 20000 nM throughout. In addition, the “ER ratio (Cell: MDR1/LLC-PK1)” value in data set [2] stood at 2.4.
As to `C[C@@H](F)[C@H]1OC(N)=N[C@](C)(c2cc(NC(=O)c3ccc(C#N)cn3)ccc2F)[C@H]1F` [Compound I-15], in data set [1], the concentration ratio (Kp) at 0.5 h was 0.79. Moreover, the IC50 against CYP2D6 and against CYP2C9 was ≥ 20000 nM in each case. In addition, the “ER ratio (Cell: MDR1/LLC-PK1)” value in data set [2] is on record as 2.7.
For the molecule `CO[C@H]1[C@@H](CF)OC(N)=N[C@]1(C)c1cc(NC(=O)c2cnc(OCF)cn2)ccc1Cl` [Compound I-19], the partition ratio (Kp) at 0.5 h in data set [1] was 0.51. Also, the IC50 at CYP2C9 was ≥ 20000 nM.
The matching figures for `C[C@H]1[C@@H](C(F)(F)F)OC(N)=N[C@]1(C)c1cc(NC(=O)c2cnc(OCF)cn2)ccc1F` [Compound I-30]: 3.2 and ≥ 20000 nM.
On to `CC(F)(F)[C@H]1OC(N)=N[C@](C)(c2cc(NC(=O)c3ccc(C#N)cn3)ccc2F)[C@H]1F` [Compound I-40], for which the concentration ratio (Kp) at 0.5 h in data set [1] was determined as 0.74. Further, the IC50 on CYP2D6 was ≥ 20000 nM; against CYP2C9, ≥ 20000 nM; in data set [3], 6 nM; at Recombinant human BACE1 it was 21.1 nM. Moreover, the “ER ratio (Cell: MDR1/LLC-PK1)” value in data set [2] is 1.1.
Turning to `C[C@H]1[C@@H](C(F)(F)F)OC(N)=N[C@]1(C)c1cc(NC(=O)c2cnc(OCF)cn2)ccc1F` [Compound I-41], the “Kp Brain” value in data set [1] (intravenous 0.5 mg/mL/kg) is reported as 1.9. The IC50 in data set [3] came out at 15 nM; at Recombinant human BACE1, 14.6 nM. Further, in data set [2], the “ER ratio (Cell: MDR1/LLC-PK1)” value is 1.4.
Turning to `COc1cnc(C(=O)Nc2ccc(F)c([C@@]3(C)N=C(N)O[C@H](C(C)(F)F)[C@@H]3F)c2)cn1` [Compound I-42], in data set [1], the partition ratio (Kp) at 0.5 h was 2. The IC50 worked out at 21 nM in data set [3] and 14.7 nM on Recombinant human BACE1. Also, the “ER ratio (Cell: MDR1/LLC-PK1)” value in data set [2] is 1.5.
As to `C[C@H]1SC(N)=N[C@](C)(c2cc(NC(=O)c3cnc(OCC(F)(F)F)cn3)ccc2F)[C@H]1F` [Compound I-46], the concentration ratio (Kp) at 0.5 h in data set [1] was found to be 1.9. Also, the half-inhibitory concentration (IC50) was ≥ 10000 nM at CYP2D6, 2.4 nM in data set [3] and 23.6 nM at Recombinant human BACE1. Besides, in data set [2], the “ER ratio (Cell: MDR1/LLC-PK1)” value is listed as 1.5.
In the case of `C[C@H]1SC(N)=N[C@](C)(c2cc(NC(=O)c3cnc(OC(F)F)cn3)ccc2F)[C@H]1F` [Compound I-47], the Kp at 0.5 h in data set [1] stood at 1.1. The values for the half-maximal inhibitory concentration (IC50) (in data set [3]; at Recombinant human BACE1) were 1.2 nM and 4.77 nM, respectively. In addition, the “ER ratio (Cell: MDR1/LLC-PK1)” value in data set [2] amounted to 1.3.
Take `C[C@H]1SC(N)=N[C@](C)(c2cc(NC(=O)c3cnc(OCC(F)F)cn3)ccc2F)[C@H]1F` [Compound I-48]: in data set [1], the concentration ratio (Kp) at 0.5 h is 2.1. Further, the IC50 against CYP2D6 was ≥ 10000 nM; in data set [3], 5.4 nM; on Recombinant human BACE1, 7.49 nM. The “ER ratio (Cell: MDR1/LLC-PK1)” value in data set [2] is 1.1.
On to `Cc1cc(C#N)cnc1C(=O)Nc1ccc(F)c([C@@]2(C)N=C(N)S[C@H](C)[C@@H]2F)c1` [Compound I-52], for which, in data set [1], the Kp at 0.5 h amounted to 0.63. In addition, the figures for the IC50 (at CYP2D6; in data set [3]; on Recombinant human BACE1) were ≥ 20000 nM, 0.42 nM and 7.62 nM, respectively. For the same molecule, the “ER ratio (Cell: MDR1/LLC-PK1)” value in data set [2] came to 2.1.
For `C[C@H]1SC(N)=N[C@](C)(c2cc(NC(=O)c3cnc(OCF)cn3)ccc2F)C12CC(F)(F)C2` [Compound I-62], the Kp at 0.5 h in data set [1] was determined as 4.8. Besides, the IC50 is ≥ 10000 nM against CYP2C9, 0.25 nM in data set [3] and 7.74 nM on Recombinant human BACE1. Also, the “ER ratio (Cell: MDR1/LLC-PK1)” value in data set [2] is on record as 0.7.
As to `C[C@H]1SC(N)=N[C@](C)(c2cc(NC(=O)c3cnc(C(F)F)cn3)ccc2F)[C@H]1F` [Compound I-65], in data set [1], the concentration ratio (Kp) at 0.5 h is 1.7. The IC50 in data set [3] came to 1.1 nM; on Recombinant human BACE1, 21.9 nM. The “ER ratio (Cell: MDR1/LLC-PK1)” value in data set [2] amounted to 1.1.
As for `COC[C@H]1SC(N)=N[C@](C)(c2cc(NC(=O)c3cnc(OCF)cn3)ccc2F)[C@H]1F` [Compound I-91], in data set [1], the Kp at 0.5 h turned out to be 1. Further, the IC50 in data set [3] was determined as 0.25 nM; at Recombinant human BACE1 it was 6.37 nM. Also, the “ER ratio (Cell: MDR1/LLC-PK1)” value in data set [2] is listed as 1.5.
For the molecule `C[C@H]1SC(N)=N[C@](C)(c2cc(NC(=O)c3ccc(F)cn3)ccc2F)[C@H]1F` [Compound I-116], the Kp at 0.5 h in data set [1] turned out to be 1.8. Moreover, the results for the IC50 (against CYP2D6; in data set [3]; at Recombinant human BACE1) were ≥ 20000 nM, 0.99 nM and 7.84 nM, respectively. Besides, in data set [2], the “ER ratio (Cell: MDR1/LLC-PK1)” value is 1.1.
